Assay results reported in the supplement of paper PMC10307832.

What was measured:
Experiment in all cases: relative viability (nuclei count vs DMSO), 5 days (fraction); higher = more cells survive
HCC-78 = test system: HCC-78
Outline: (§1)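 Values are medians from duplicate plates. Each reflects relative viability, defined as the nuclei count of treated wells over that of vehicle wells. Lung cancer cell lines in 1536-well plates were pin-tool dosed one day after seeding with one drug alone or with a fixed anchor-drug dose plus five library-drug doses (not always all listed) in √10 steps, then fixed, stained and imaged at 4× after 5 days.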

NCI-H1437 = test system: NCI-H1437
Outline: as §1

NCI-H1975 = test system: NCI-H1975
Outline: as §1

COR-L23 = test system: COR-L23
Outline: as §1

HCC-15 = test system: HCC-15
Outline: as §1

PC-14 = test system: PC-14
Outline: as §1

NCI-H1666 = test system: NCI-H1666
Outline: as §1

COR-L 105 = test system: COR-L 105
Outline: as §1

HCC-366 = test system: HCC-366
Outline: as §1

201T = test system: 201T
Outline: as §1

NCI-H1915 = test system: NCI-H1915
Outline: as §1

HCC-44 = test system: HCC-44
Outline: as §1

NCI-H3122 = test system: NCI-H3122
Outline: as §1

A-427 = test system: A-427
Outline: as §1

LK-2 = test system: LK-2
Outline: as §1

NCI-H1648 = test system: NCI-H1648
Outline: as §1

HARA = test system: HARA
Outline: as §1

LCLC-97TM1 = test system: LCLC-97TM1
Outline: as §1

NCI-H1944 = test system: NCI-H1944
Outline: as §1

NCI-H2023 = test system: NCI-H2023
Outline: as §1

NCI-H2405 = test system: NCI-H2405
Outline: as §1

NCI-H460 = test system: NCI-H460
Outline: as §1

NCI-H1563 = test system: NCI-H1563
Outline: as §1

Nc1cccc2c1CN(C1CCC(=O)NC1=O)C2=O (stereo not drawn) [Lenalidomide] + Nc1nc2[nH]cc(CCc3ccc(C(=O)N[C@@H](CCC(=O)O)C(=O)O)cc3)c2c(=O)[nH]1 [Pemetrexed] (partner 0.2 µM)
relative viability (HCC-78; first compound 0.253 µM): 0.878 | relative viability (HCC-78; first compound 0.8 µM): 0.936 | relative viability (HCC-78; first compound 2.53 µM): 0.886 | relative viability (HCC-78; first compound 8 µM): 0.937 | relative viability (NCI-H1437; first compound 0.253 µM): 0.294 | relative viability (NCI-H1437; first compound 0.8 µM): 0.33 | relative viability (NCI-H1437; first compound 2.53 µM): 0.327 | relative viability (NCI-H1437; first compound 8 µM): 0.323 | relative viability (NCI-H1975; first compound 0.253 µM): 0.29 | relative viability (NCI-H1975; first compound 0.8 µM): 0.303 | relative viability (NCI-H1975; first compound 2.53 µM): 0.322 | relative viability (NCI-H1975; first compound 8 µM): 0.332 | relative viability (COR-L23; first compound 0.253 µM): 0.192 | relative viability (COR-L23; first compound 0.8 µM): 0.191 | relative viability (COR-L23; first compound 2.53 µM): 0.191 | relative viability (COR-L23; first compound 8 µM): 0.189 | relative viability (HCC-15; first compound 0.253 µM): 0.219 | relative viability (HCC-15; first compound 2.53 µM): 0.231 | relative viability (HCC-15; first compound 8 µM): 0.228 | relative viability (PC-14; first compound 0.253 µM): 0.126 | relative viability (PC-14; first compound 0.8 µM): 0.151 | relative viability (PC-14; first compound 2.53 µM): 0.139 | relative viability (PC-14; first compound 8 µM): 0.16 | relative viability (NCI-H1666; first compound 0.253 µM): 0.801 | relative viability (NCI-H1666; first compound 0.8 µM): 0.878 | relative viability (NCI-H1666; first compound 2.53 µM): 0.873 | relative viability (NCI-H1666; first compound 8 µM): 0.826 | relative viability (COR-L 105; first compound 0.253 µM): 1.21 | relative viability (COR-L 105; first compound 0.8 µM): 1.16 | relative viability (COR-L 105; first compound 2.53 µM): 1.22 | relative viability (COR-L 105; first compound 8 µM): 1.2 | relative viability (HCC-366; first compound 0.253 µM): 0.161 | relative viability (HCC-366; first compound 0.8 µM): 0.123 | relative viability (HCC-366; first compound 2.53 µM): 0.206 | relative viability (HCC-366; first compound 8 µM): 0.264 | relative viability (201T; first compound 0.253 µM): 0.33 | relative viability (201T; first compound 0.8 µM): 0.325 | relative viability (201T; first compound 2.53 µM): 0.322 | relative viability (201T; first compound 8 µM): 0.287 | relative viability (NCI-H1915; first compound 0.253 µM): 0.492 | relative viability (NCI-H1915; first compound 0.8 µM): 0.515 | relative viability (NCI-H1915; first compound 2.53 µM): 0.518 | relative viability (NCI-H1915; first compound 8 µM): 0.476 | relative viability (HCC-44; first compound 0.253 µM): 0.616 | relative viability (HCC-44; first compound 0.8 µM): 0.638 | relative viability (HCC-44; first compound 2.53 µM): 0.631 | relative viability (HCC-44; first compound 8 µM): 0.762 | relative viability (NCI-H3122; first compound 0.253 µM): 0.205 | relative viability (NCI-H3122; first compound 0.8 µM): 0.202 | relative viability (NCI-H3122; first compound 2.53 µM): 0.193 | relative viability (NCI-H3122; first compound 8 µM): 0.23 | relative viability (A-427; first compound 0.253 µM): 0.989 | relative viability (A-427; first compound 0.8 µM): 0.931 | relative viability (A-427; first compound 2.53 µM): 1.05 | relative viability (A-427; first compound 8 µM): 0.993 | relative viability (LK-2; first compound 0.253 µM): 0.301 | relative viability (LK-2; first compound 0.8 µM): 0.167 | relative viability (LK-2; first compound 2.53 µM): 0.227 | relative viability (LK-2; first compound 8 µM): 0.175 | relative viability (NCI-H1648; first compound 0.253 µM): 0.765 | relative viability (NCI-H1648; first compound 2.53 µM): 0.711 | relative viability (NCI-H1648; first compound 8 µM): 0.747 | relative viability (HARA; first compound 0.253 µM): 0.258 | relative viability (HARA; first compound 2.53 µM): 0.249 | relative viability (HARA; first compound 8 µM): 0.259 | relative viability (LCLC-97TM1; first compound 0.253 µM): 0.175 | relative viability (LCLC-97TM1; first compound 0.8 µM): 0.151 | relative viability (LCLC-97TM1; first compound 2.53 µM): 0.18 | relative viability (LCLC-97TM1; first compound 8 µM): 0.2 | relative viability (NCI-H1944; first compound 0.253 µM): 0.642 | relative viability (NCI-H1944; first compound 2.53 µM): 0.691 | relative viability (NCI-H1944; first compound 8 µM): 0.553 | relative viability (NCI-H2023; first compound 0.253 µM): 0.259 | relative viability (NCI-H2023; first compound 0.8 µM): 0.235 | relative viability (NCI-H2023; first compound 2.53 µM): 0.246 | relative viability (NCI-H2023; first compound 8 µM): 0.256 | relative viability (NCI-H2405; first compound 0.253 µM): 0.999 | relative viability (NCI-H2405; first compound 0.8 µM): 0.988 | relative viability (NCI-H2405; first compound 2.53 µM): 1.08 | relative viability (NCI-H2405; first compound 8 µM): 0.94 | relative viability (NCI-H460; first compound 0.253 µM): 0.0811 | relative viability (NCI-H460; first compound 0.8 µM): 0.068 | relative viability (NCI-H460; first compound 2.53 µM): 0.0659 | relative viability (NCI-H460; first compound 8 µM): 0.0603 | relative viability (NCI-H1563; first compound 0.253 µM): 1 | relative viability (NCI-H1563; first compound 0.8 µM): 0.361 | relative viability (NCI-H1563; first compound 2.53 µM): 0.952 | relative viability (NCI-H1563; first compound 8 µM): 0.637
